Measured values: ChEMBL document CHEMBL1201862, “PubChem BioAssay data set” (2004)
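Five concentrations, 48 hours, 96-well plates. At the GI50, growth is halved.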 Active and inactive are the calls of the source. Rule as the data show it: active = GI50 up to about 1.1 µM and inactive = higher. Peptide text beside a SMILES is read from it. * marks the point of attachment. OSu = O=C1CCC(=O)N1O*

Key:
Experiment in all cases: growth of human tumour cells (NCI), 48 h
SN12C = system: SN12C
SNB-75 = system: SNB-75
UO-31 = system: UO-31
UACC-257 = system: UACC-257
IGROV-1 = system: IGROV-1
HCT-116 = system: HCT-116
OVCAR-4 = system: OVCAR-4
ACHN = system: ACHN
SF-268 = system: SF-268
SK-OV-3 = system: SK-OV-3
HCT-15 = system: HCT-15
TK-10 = system: TK-10
SNB-19 = system: SNB-19
MOLT-4 = system: MOLT-4
EKVX = system: EKVX
LOX IMVI = system: LOX IMVI
SK-MEL-5 = system: SK-MEL-5
OVCAR-8 = system: OVCAR-8
OVCAR-5 = system: OVCAR-5
A498 = system: A498

Measured: GI50

CC1=C(C(=O)OCc2ccncc2)C(C2=C(C)SCCS2)C(C(=O)OCc2ccncc2)=C(C)N1
25.6 µM: HCT-15
inactive: SN12C 25.1 µM | SNB-75 15.8 µM | UO-31 17.5 µM | UACC-257 17.1 µM | IGROV-1 62.5 µM | HCT-116 15.1 µM | OVCAR-4 38.3 µM | ACHN 34.5 µM | SF-268 33 µM | SK-OV-3 26.6 µM | TK-10 40.8 µM | SNB-19 29.1 µM | MOLT-4 15.3 µM | EKVX 21.2 µM | LOX IMVI 18.8 µM | SK-MEL-5 15.3 µM | OVCAR-8 26.4 µM | OVCAR-5 40.7 µM

CCC(=O)N(O)C(C)(C)C
> 100 µM: HCT-15
inactive: SN12C > 100 µM | SNB-75 92.3 µM | UO-31 > 100 µM | UACC-257 > 100 µM | IGROV-1 > 100 µM | HCT-116 > 100 µM | OVCAR-4 > 100 µM | ACHN > 100 µM | SF-268 > 100 µM | SK-OV-3 > 100 µM | TK-10 > 100 µM | SNB-19 > 100 µM | MOLT-4 > 100 µM | LOX IMVI > 100 µM | SK-MEL-5 > 100 µM | OVCAR-8 > 100 µM | OVCAR-5 > 100 µM

COc1ccc2c(c1)[n+]([O-])c1cc(C#N)ccc1[n+]2[O-]
active: MOLT-4 0.316 µM | SK-MEL-5 0.893 µM
0.723 µM: HCT-15
inactive: SN12C 3.17 µM | SNB-75 4.41 µM | UO-31 5.31 µM | UACC-257 3.74 µM | IGROV-1 4.88 µM | HCT-116 11.1 µM | OVCAR-4 12.4 µM | ACHN 1.69 µM | SF-268 13.3 µM | SK-OV-3 18.5 µM | TK-10 3.21 µM | SNB-19 7.87 µM | EKVX 24 µM | LOX IMVI 3.3 µM | OVCAR-8 15.4 µM | OVCAR-5 15.2 µM

NCCCCC(NC(=O)C(N)Cc1ccc(O)cc1)C(=O)NC(CCCCN)C(=O)NC(CCCCN)C(=O)ON1C(=O)CCC1=O (stereo not given) (H-YKKK-OSu; configuration not given here)
inactive: SN12C > 100 µM | A498 > 100 µM | SNB-75 > 100 µM | UO-31 > 100 µM | UACC-257 > 100 µM | IGROV-1 > 100 µM | HCT-116 > 100 µM | ACHN > 100 µM | TK-10 > 100 µM | SNB-19 > 100 µM | MOLT-4 > 100 µM | EKVX > 100 µM | SK-MEL-5 > 100 µM | OVCAR-8 > 100 µM | OVCAR-5 > 100 µM
> 100 µM: HCT-15

CC1=NNC(=O)C1C1C(=O)NN=C(c2c[nH]c3ccccc23)C1Br (stereo not given)
inactive: SN12C > 100 µM | A498 > 100 µM | SNB-75 13.1 µM | UO-31 48 µM | UACC-257 > 100 µM | HCT-116 35.7 µM | ACHN 42.3 µM | SF-268 32.7 µM | SK-OV-3 57.4 µM | TK-10 > 100 µM | SNB-19 37.8 µM | MOLT-4 25.4 µM | EKVX 53.5 µM | LOX IMVI 62.1 µM | SK-MEL-5 37.8 µM | OVCAR-8 48.9 µM | OVCAR-5 > 100 µM
> 100 µM: HCT-15
active: IGROV-1 1.09 µM

C=CCn1c(=O)c2ccccc2[n+]2c(C)c(C(=O)OCC)sc12
> 100 µM: HCT-15
inactive: SN12C > 100 µM | UO-31 > 100 µM | UACC-257 > 100 µM | IGROV-1 > 100 µM | HCT-116 > 100 µM | OVCAR-4 > 100 µM | ACHN > 100 µM | SF-268 > 100 µM | SK-OV-3 > 100 µM | TK-10 > 100 µM | SNB-19 > 100 µM | MOLT-4 > 100 µM | EKVX > 100 µM | LOX IMVI > 100 µM | SK-MEL-5 > 100 µM | OVCAR-8 > 100 µM | OVCAR-5 > 100 µM

CC[N+]1(C)CCC(O)(c2ccc(C)cc2)C(C(=O)c2ccc(C)cc2)C1 (stereo not given)
inactive: SN12C > 100 µM | A498 > 100 µM | UO-31 > 100 µM | UACC-257 62.5 µM | IGROV-1 > 100 µM | HCT-116 51.8 µM | OVCAR-4 34.4 µM | ACHN 23.3 µM | SF-268 34.8 µM | SK-OV-3 > 100 µM | TK-10 20.2 µM | SNB-19 > 100 µM | MOLT-4 23.6 µM | EKVX > 100 µM | SK-MEL-5 > 100 µM | OVCAR-8 34.2 µM | OVCAR-5 31 µM
21.7 µM: HCT-15

CCCC(O)c1ccc2[nH]c3c(C)cc([N+](=O)[O-])c(C)c3c2c1 (stereo not given)
inactive: SN12C > 100 µM | SNB-75 > 100 µM | UO-31 > 100 µM | UACC-257 > 100 µM | HCT-116 > 100 µM | OVCAR-4 > 100 µM | ACHN > 100 µM | SF-268 > 100 µM | TK-10 23 µM | SNB-19 > 100 µM | MOLT-4 > 100 µM | EKVX > 100 µM | LOX IMVI > 100 µM | SK-MEL-5 > 100 µM | OVCAR-8 > 100 µM | OVCAR-5 > 100 µM
> 100 µM: HCT-15

COC(=O)C1(C(=O)OC)CC(=O)c2cc3c(cc2-c2c(cc(OC)c(OC)c2OC)C1)OCO3
204 µM: HCT-15
inactive: SN12C > 211 µM | UACC-257 139 µM | IGROV-1 > 211 µM | HCT-116 111 µM | ACHN > 211 µM | SF-268 > 211 µM | SK-OV-3 > 211 µM | TK-10 > 211 µM | SNB-19 55.3 µM | MOLT-4 83.6 µM | EKVX > 211 µM | LOX IMVI > 211 µM | SK-MEL-5 123 µM | OVCAR-8 139 µM | OVCAR-5 88.3 µM

COC(=O)C1=C(C(=O)OC)C(C(=O)OC)C(C(=O)OC)=C1C(=O)OC
> 100 µM: HCT-15
inactive: SN12C > 100 µM | SNB-75 > 100 µM | UO-31 > 100 µM | UACC-257 > 100 µM | IGROV-1 > 100 µM | OVCAR-4 > 100 µM | ACHN > 100 µM | SF-268 > 100 µM | SK-OV-3 > 100 µM | TK-10 > 100 µM | SNB-19 > 100 µM | MOLT-4 > 100 µM | EKVX > 100 µM | LOX IMVI > 100 µM | SK-MEL-5 > 100 µM | OVCAR-8 > 100 µM | OVCAR-5 > 100 µM

CC(C)(C)OC(=O)N(CCNS(=O)(=O)c1cccc2cnccc12)CCC(=O)ON1C(=O)CCC1=O
> 100 µM: HCT-15
inactive: SN12C > 100 µM | SNB-75 > 100 µM | UO-31 > 100 µM | UACC-257 > 100 µM | IGROV-1 > 100 µM | HCT-116 > 100 µM | OVCAR-4 > 100 µM | ACHN > 100 µM | SF-268 > 100 µM | SK-OV-3 > 100 µM | TK-10 > 100 µM | SNB-19 > 100 µM | MOLT-4 > 100 µM | EKVX 6.52 µM | LOX IMVI > 100 µM | SK-MEL-5 > 100 µM | OVCAR-8 > 100 µM | OVCAR-5 > 100 µM

C[Si](C)(C)/C=C/CCC(C=O)(CCCl)c1ccccc1 (stereo not given)
inactive: SN12C 31.4 µM | A498 64.1 µM | SNB-75 35.2 µM | UO-31 44.2 µM | UACC-257 26.2 µM | IGROV-1 41.1 µM | HCT-116 14.1 µM | ACHN 22.8 µM | SF-268 31.7 µM | SK-OV-3 56.9 µM | TK-10 56.1 µM | SNB-19 42.7 µM | MOLT-4 16.3 µM | EKVX 26 µM | LOX IMVI 19.1 µM | SK-MEL-5 17.8 µM | OVCAR-8 27.7 µM | OVCAR-5 25.5 µM
19.5 µM: HCT-15

O=C(Oc1ccc2c(-c3ccccc3)c(C(=O)Nc3ccc(Cl)cc3)c(=O)oc2c1)c1ccccc1
inactive: SN12C > 100 µM | SNB-75 52.2 µM | UO-31 > 100 µM | UACC-257 > 100 µM | IGROV-1 > 100 µM | HCT-116 > 100 µM | ACHN > 100 µM | SK-OV-3 > 100 µM | TK-10 > 100 µM | SNB-19 > 100 µM | MOLT-4 74.1 µM | EKVX > 100 µM | LOX IMVI > 100 µM | SK-MEL-5 > 100 µM | OVCAR-8 > 100 µM
> 100 µM: HCT-15

O=C1C(/N=N/c2ccc(-c3nc4ccccc4o3)cc2)NC(=S)N1c1ccccc1 (stereo not given)
inactive: SNB-75 62.4 µM | UO-31 > 100 µM | UACC-257 39.1 µM | IGROV-1 57.3 µM | HCT-116 > 100 µM | OVCAR-4 82 µM | ACHN > 100 µM | SF-268 > 100 µM | SK-OV-3 > 100 µM | TK-10 70 µM | SNB-19 > 100 µM | MOLT-4 34.7 µM | EKVX 49.3 µM | LOX IMVI 35.5 µM | SK-MEL-5 49.1 µM | OVCAR-8 60.3 µM | OVCAR-5 > 100 µM
active: SN12C 0.692 µM
62.8 µM: HCT-15

O=C1C(Cl)C(c2cccc(O)c2)N1n1cnc2ccccc2c1=O (stereo not given)
> 100 µM: HCT-15
inactive: SN12C > 100 µM | SNB-75 27.9 µM | UO-31 15 µM | UACC-257 > 100 µM | IGROV-1 60.5 µM | HCT-116 89.9 µM | OVCAR-4 > 100 µM | ACHN > 100 µM | SF-268 > 100 µM | SK-OV-3 > 100 µM | TK-10 > 100 µM | SNB-19 49.5 µM | MOLT-4 57.5 µM | EKVX 64.3 µM | LOX IMVI > 100 µM | SK-MEL-5 > 100 µM | OVCAR-8 > 100 µM | OVCAR-5 > 100 µM
